Test results from PubChem BioAssay AID1963861 (Molecular Pharmacology Branch, DTP, NCI, 2024).
Where “and” joins values, the source holds several entries; their conditions need not be identical. Equal values may be shown once.

Test system: 885724-159-R-J1-PDC KRAS PDC multicell spheroid viability
Experiment: Anticancer human tumor 885724-159-R-J1-PDC patient-derived pancreatic adenocarcinoma cell line growth inhibition [KRAS2]
Settings: for viability, T/C: stronger effect = lower value
Source text: Multicellular complex tumor spheroid response to RAS pathway inhibitors in combination with a targeted agents in patient-derived cell lines with oncogenic KRAS variants from multiple cancer types
A high-throughput screen of multi-cell type tumor spheroids was designed to identify active combinations of targeted small molecules and KRAS pathway inhibitors. Complex spheroids include a stromal component modeled by human endothelial cells (HUVEC) and fibroblasts modeled by human mesenchymal stem cells (MSCs). The concentration ranges selected for each drug and investigational agent were based upon clinically achievable concentrations if the clinical Cmax of the agent was known.
Compounds. The drugs and investigational agents: BI-3406 (NSC825286), BAY-293 (NSC824723), batoprotafib (TNO155; NSC825523), sotorasib (AMG 510; NSC818433), MRTX1257 (NSC819558), elimusertib (BAY 1895344; NSC800525), molibresib (GSK525762; NSC774829), temuterkib (LY3214996; NSC803410), venetoclax (NSC766270), alisertib (NSC759677), olaparib (NSC753686), talazoparib (NSC767125), erdafitinib (NSC781556), ipatasertib (NSC767898), cabozantinib (NSC761068), nintedanib (NSC756659), abemaciclib (NSC768073), docetaxel (NSC628503), trametinib (NSC758246), and sapanisertib (NSC764658) were obtained from the National Cancer Institute (NCI) Developmental Therapeutics Program Chemical Repository. The FDA-approved anticancer drug set is available from the Developmental Therapeutics Program. […] The stock solutions were prepared in dimethyl sulfoxide (DMSO, Sigma-Aldrich, St. Louis, MO, cat. D2650) at 800-fold the tested concentration and stored at -70 degrees C prior to their use. All drugs and investigational agents were tested over a range starting from a high concentration at or near the clinical Cmax and decreasing in half-log increments. If the clinical Cmax for an agent had not been determined, the highest concentration tested was 10 microM.
Cell Culture. All cells were maintained in an incubator at 37 degrees C and 5% CO2 with 95% humidity. The PDC lines were cultured according to standard operating procedures established by the NCI PDMR (https://pdmr.cancer.gov/sops/default.htm). Briefly, all PDCs were thawed and cultured in Matrigel-coated flasks prepared with a working solution of 1X Ham's F-12 nutrient mix, without supplementation (Invitrogen, Waltham, MA, cat. 11765054), 100 U/mL penicillin-streptomycin (Invitrogen, cat. 15140122), and 2.5% Matrigel (Corning Inc., Corning, NY, cat. 354248) for the first three passages. All PDCs were cultured in complete DMEM/F-12 media containing advanced DMEM/F-12 (Invitrogen, cat. 12634028), 4.9% defined fetal bovine serum, heat inactivated (HyClone Laboratories Inc., Logan, UT, cat. SH30070.03HI), 389 ng/mL hydrocortisone (Sigma-Aldrich, cat. H4001), 9.7 ng/mL human EGF recombinant protein (Invitrogen, cat. PHG0313), 23.4 microg/mL adenine (Sigma-Aldrich, cat. A2786), 97.3 U/mL penicillin-streptomycin (Invitrogen, cat. 15140122), 1.9 mM L-glutamine (Invitrogen, cat. 25030081), and 9.7 microM Y-27632 dihydrochloride (Tocris Bioscience, Bristol, United Kingdom, cat. 1254). The PDCs were cultured in complete DMEM/F12 media without 9.7 microM Y-27632 dihydrochloride for at least two passages prior to the screen. The established cell line HOP-62 was cultured in RPMI 1640 medium, HEPES (Invitrogen, cat. 22400105) with 10% defined fetal bovine serum (HyClone Laboratories Inc., cat. SH30070.03) and 2 mM L-glutamine (Invitrogen, cat. 25030081). The pooled donor HUVEC were cultured in endothelial cell growth medium 2 (PromoCell, Heidelberg, Germany, cat. C-22011) and the hMSC were cultured in mesenchymal stem cell growth medium 2 (PromoCell, cat. C-28009). For all experiments, HUVEC and hMSC were used at passages </=5, while the malignant cell lines were used at passages </=15. […]

[1] = compound alone, run of 08/19/2021
[2] = compound alone, run of 08/26/2021
[3] = compound alone, run of 09/02/2021
[4] = curve of first compound, second compound 0.1 µM
[5] = curve of first compound, second compound 0.316 µM
[6] = curve of first compound, second compound 1 µM
[7] = curve of first compound, second compound 3.16 µM
[8] = curve of first compound, second compound 10 µM
[9] = second compound 0.1 µM, first compound 0.01 µM
[10] = second compound 0.1 µM, first compound 0.0316 µM
[11] = second compound 0.1 µM, first compound 0.1 µM
[12] = second compound 0.1 µM, first compound 0.316 µM
[13] = second compound 0.1 µM, first compound 1 µM
[14] = second compound 0.1 µM, first compound 3.16 µM
[15] = second compound 0.316 µM, first compound 0.01 µM
[16] = second compound 0.316 µM, first compound 0.0316 µM
[17] = second compound 0.316 µM, first compound 0.1 µM
[18] = second compound 0.316 µM, first compound 0.316 µM
[19] = second compound 0.316 µM, first compound 1 µM
[20] = second compound 0.316 µM, first compound 3.16 µM
[21] = second compound 1 µM, first compound 0.01 µM
[22] = second compound 1 µM, first compound 0.0316 µM
[23] = second compound 1 µM, first compound 0.1 µM
[24] = second compound 1 µM, first compound 0.316 µM
[25] = second compound 1 µM, first compound 1 µM
[26] = second compound 1 µM, first compound 3.16 µM
[27] = second compound 3.16 µM, first compound 0.01 µM
[28] = second compound 3.16 µM, first compound 0.0316 µM
[29] = second compound 3.16 µM, first compound 0.1 µM
[30] = second compound 3.16 µM, first compound 0.316 µM
[31] = second compound 3.16 µM, first compound 1 µM
[32] = second compound 3.16 µM, first compound 3.16 µM
[33] = second compound 10 µM, first compound 0.01 µM
[34] = second compound 10 µM, first compound 0.0316 µM
[35] = second compound 10 µM, first compound 0.1 µM
[36] = second compound 10 µM, first compound 0.316 µM
[37] = second compound 10 µM, first compound 1 µM
[38] = second compound 10 µM, first compound 3.16 µM
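Note: spheroids exposed to agents for 7 days before readout.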

For C=CC(=O)N1CCN(c2nc(=O)n(-c3c(C)ccnc3C(C)C)c3nc(-c4c(O)cccc4F)c(F)cc23)C(C)C1 (configuration not stated), the viability, T/C (compound 0.1 µM) was 107% [middle of 15 runs], the viability, T/C (compound 0.316 µM) was 107% [middle of 15 runs] and the viability, T/C (compound 1 µM) was 106% [middle of 15 runs]. The IC50 [1] was greater than 10 µM, the IC50 [2] was greater than 10 µM and the IC50 [3] was greater than 10 µM.
In the case of CNCc1ccccc1-c1csc(C(C)Nc2nc(C)nc3cc(OC)c(OC)cc23)c1 (configuration not stated), the viability, T/C (compound 0.1 µM) is reported as 101% [middle of 15 runs], the viability, T/C (compound 0.316 µM) is reported as 101% [middle of 15 runs] and the viability, T/C (compound 10 µM) is reported as 0.23% [middle of 13 runs]. The IC50 [2] was 1.65 µM [middle of 5 runs] and the IC50 [3] was 1.6 µM and 1.72 µM and 1.8 µM.
With COc1cc2nc(C)nc(NC(C)c3cc(N)cc(C(F)(F)F)c3)c2cc1OC1CCOC1 (configuration not stated) the IC50 [1] was > 10 µM and 8.35 µM and 7.91 µM.
Compound CC(=O)OC12COC1CC(O)C1(C)C(=O)C(O)C3=C(C)C(OC(=O)C(O)C(NC(=O)OC(C)(C)C)c4ccccc4)CC(O)(C(OC(=O)c4ccccc4)C21)C3(C)C (configuration not stated) + C=CC(=O)N1CCN(c2nc(=O)n(-c3c(C)ccnc3C(C)C)c3nc(-c4c(O)cccc4F)c(F)cc23)C(C)C1 has an IC50 [4] greater than 3.16 µM, an IC50 [5] greater than 3.16 µM and an IC50 [6] greater than 3.16 µM. The IC50 [7] was greater than 3.16 µM, the IC50 [8] was greater than 3.16 µM and the viability, T/C [9] was 91.7%. The viability, T/C [10] was 104%, the viability, T/C [11] was 95.5% and the viability, T/C [12] was 107%. For the same compound, the viability, T/C [13] was 110%, the viability, T/C [14] was 112% and the viability, T/C [15] was 94.6%. It also gave a viability, T/C [16] of 102%, a viability, T/C [17] of 104% and a viability, T/C [18] of 112%. The viability, T/C [19] was 112%, the viability, T/C [20] was 112% and the viability, T/C [21] was 105%. It also gave a viability, T/C [22] of 119%, a viability, T/C [23] of 114% and a viability, T/C [24] of 103%. The viability, T/C [25] was 119%, the viability, T/C [26] was 125% and the viability, T/C [27] was 99.1%. The viability, T/C [28] was 114%, the viability, T/C [29] was 113% and the viability, T/C [30] was 112%. It also gave a viability, T/C [31] of 111%, a viability, T/C [32] of 121% and a viability, T/C [33] of 80.8%. For the same compound, the viability, T/C [34] was 84.1%, the viability, T/C [35] was 87.7% and the viability, T/C [36] was 86%. The viability, T/C [37] was 86.6% and the viability, T/C [38] was 78.3%.
In the case of CN(C)C/C=C/C(=O)Nc1cc2c(Nc3ccc(F)c(Cl)c3)ncnc2cc1O[C@H]1CCOC1 + C=CC(=O)N1CCN(c2nc(=O)n(-c3c(C)ccnc3C(C)C)c3nc(-c4c(O)cccc4F)c(F)cc23)C(C)C1, the IC50 [4] is reported as greater than 0.1 µM, the IC50 [5] is reported as greater than 0.1 µM and the IC50 [6] is reported as greater than 0.1 µM. For the same compound, the IC50 [7] was greater than 0.1 µM, the IC50 [8] was greater than 0.1 µM and the viability, T/C (second compound 0.1 µM, first compound 0.000316 µM) was 116%. It also gave a viability, T/C (second compound 0.1 µM, first compound 0.001 µM) of 117%, a viability, T/C (second compound 0.1 µM, first compound 0.00316 µM) of 106% and a viability, T/C [9] of 95.4%. It also gave a viability, T/C [10] of 90.8%, a viability, T/C [11] of 79.9% and a viability, T/C (second compound 0.316 µM, first compound 0.000316 µM) of 124%. For the same compound, the viability, T/C (second compound 0.316 µM, first compound 0.001 µM) was 118%, the viability, T/C (second compound 0.316 µM, first compound 0.00316 µM) was 101% and the viability, T/C [15] was 101%. For the same compound, the viability, T/C [16] was 92.6%, the viability, T/C [17] was 86% and the viability, T/C (second compound 1 µM, first compound 0.000316 µM) was 130%. It also gave a viability, T/C (second compound 1 µM, first compound 0.001 µM) of 119%, a viability, T/C (second compound 1 µM, first compound 0.00316 µM) of 117% and a viability, T/C [21] of 110%. It also gave a viability, T/C [22] of 93.7%, a viability, T/C [23] of 90.8% and a viability, T/C (second compound 3.16 µM, first compound 0.000316 µM) of 114%. The viability, T/C (second compound 3.16 µM, first compound 0.001 µM) was 117%, the viability, T/C (second compound 3.16 µM, first compound 0.00316 µM) was 104% and the viability, T/C [27] was 97%. For the same compound, the viability, T/C [28] was 101%, the viability, T/C [29] was 89.4% and the viability, T/C (second compound 10 µM, first compound 0.000316 µM) was 89.4%. For the same compound, the viability, T/C (second compound 10 µM, first compound 0.001 µM) was 95%, the viability, T/C (second compound 10 µM, first compound 0.00316 µM) was 83.2% and the viability, T/C [33] was 78.3%. The viability, T/C [34] was 66.2% and the viability, T/C [35] was 69.4%.
In the case of O=C(c1cc(Cc2n[nH]c(=O)c3ccccc23)ccc1F)N1CCN(C(=O)C2CC2)CC1 + C=CC(=O)N1CCN(c2nc(=O)n(-c3c(C)ccnc3C(C)C)c3nc(-c4c(O)cccc4F)c(F)cc23)C(C)C1, the IC50 [4] is reported as greater than 10 µM, the IC50 [5] is reported as greater than 10 µM and the IC50 [6] is reported as greater than 10 µM. For the same compound, the IC50 [7] was greater than 10 µM, the IC50 [8] was greater than 10 µM and the viability, T/C [10] was 117%. It also gave a viability, T/C [11] of 115%, a viability, T/C [12] of 111% and a viability, T/C [13] of 113%. For the same compound, the viability, T/C [14] was 109%, the viability, T/C (second compound 0.1 µM, first compound 10 µM) was 94.1% and the viability, T/C [16] was 124%. The viability, T/C [17] was 115%, the viability, T/C [18] was 115% and the viability, T/C [19] was 113%. It also gave a viability, T/C [20] of 108%, a viability, T/C (second compound 0.316 µM, first compound 10 µM) of 103% and a viability, T/C [22] of 121%. For the same compound, the viability, T/C [23] was 119%, the viability, T/C [24] was 117% and the viability, T/C [25] was 118%. It also gave a viability, T/C [26] of 114%, a viability, T/C (second compound 1 µM, first compound 10 µM) of 100% and a viability, T/C [28] of 114%. The viability, T/C [29] was 119%, the viability, T/C [30] was 122% and the viability, T/C [31] was 117%. The viability, T/C [32] was 111%, the viability, T/C (second compound 3.16 µM, first compound 10 µM) was 93.5% and the viability, T/C [34] was 86%. It also gave a viability, T/C [35] of 84.8%, a viability, T/C [36] of 85.4% and a viability, T/C [37] of 79%. The viability, T/C [38] was 90.9% and the viability, T/C (second compound 10 µM, first compound 10 µM) was 71%.
